Experimental data from ChEMBL document CHEMBL4477229, “Design and Characterization of Superpotent Bivalent Ligands Targeting Oxytocin Receptor Dimers via a Channel-Like Structure” (J Med Chem, 2016).
Where a chain is given by its changes, count along the chain named. The source made the active and inactive calls. No cut-off for these calls is given here. Numbered stars: 1 amine (or outer) side, 2 acyl side, 3 side chain; on linkers, the order of the positions; unused ones are H or OH. Bridge positions count the residues as written; N and C are the ends. Square brackets hold non-standard residues; d marks the D form. Peptide text beside a SMILES is read from it. I, II: the chains in the order shown. Suberoyl = O=C(CCCCCCC(=O)[*:2])[*:1]; Mpa = O=C(O)CCS

Key:
[1] = target: T1, Oxytocin receptor (Homo sapiens) (UniProt P30559); test: Agonist activity at human oxytocin receptor expressed in HEK293 cells coexpressing Rluc8-tagged Galphaq, N-terminal GFP-tagged Ggamma2 and Gbeta1 protein incubated for 2 mins by Gq protein activation based BRET assay; format: cell-based; set-up: unit not given here
T1 sequence (whole entry): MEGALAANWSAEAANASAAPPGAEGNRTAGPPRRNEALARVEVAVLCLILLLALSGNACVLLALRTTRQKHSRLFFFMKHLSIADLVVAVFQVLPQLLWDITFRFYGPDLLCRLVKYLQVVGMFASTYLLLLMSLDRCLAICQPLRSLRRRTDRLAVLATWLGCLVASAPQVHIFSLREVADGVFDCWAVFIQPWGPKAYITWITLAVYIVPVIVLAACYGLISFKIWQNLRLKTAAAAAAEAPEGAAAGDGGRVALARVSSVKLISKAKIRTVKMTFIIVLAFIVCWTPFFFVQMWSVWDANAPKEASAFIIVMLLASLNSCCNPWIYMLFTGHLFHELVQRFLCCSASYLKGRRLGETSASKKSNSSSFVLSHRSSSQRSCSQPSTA

Oxytocin receptor [2] = target: T2, Oxytocin receptor (Homo sapiens, UniProt P30559); test: Agonist activity at human oxytocin receptor high affinity site expressed in HEK293 cells coexpressing Rluc8-tagged Galphaq, N-terminal GFP-tagged Ggamma2 and Gbeta1 protein incubated for 2 mins by Gq protein activation based BRET assay; format: cell-based
T2 sequence (P30559 whole entry): T1 sequence (whole entry)

Oxytocin receptor [3] = target: T2, Oxytocin receptor; test: Agonist activity at human oxytocin receptor low affinity site expressed in HEK293 cells coexpressing Rluc8-tagged Galphaq, N-terminal GFP-tagged Ggamma2 and Gbeta1 protein incubated for 2 mins by Gq protein activation based BRET assay; format: cell-based
[4] = target: T1, Oxytocin receptor (Homo sapiens); test: Displacement of [125I]-OVTA from human oxytocin receptor expressed in COS7 cell membrane; format: cell membranes
[5] = system: T3, Oxytocin receptor (Homo sapiens), P30559 [C47A]; test: (§1) Agonist activity at human oxytocin receptor C47A mutant expressed in HEK293 cells coexpressing Rluc8-tagged Galphaq, N-terminal GFP-tagged Ggamma2 and Gbeta1 protein incubated for 2 mins by Gq protein activation based BRET assay; format: cell-based; set-up: unit not given here
T3 sequence (whole entry): T1 sequence (whole entry) with C47A

Oxytocin receptor [6] = target: Oxytocin receptor (Homo sapiens, UniProt P30559, C47A); test: as §1; format: cell-based
[7] = target: T1, Oxytocin receptor (Homo sapiens); test: Ratio of EC50 for human oxytocin receptor high affinity site expressed in HEK293 cells coexpressing Rluc8-tagged Galphaq, N-terminal GFP-tagged Ggamma2 and Gbeta1 protein to Ki for human oxytocin receptor high affinity site expressed in COS7 cell membrane; format: cell-based
[8] = target: T1, Oxytocin receptor (Homo sapiens); test: Ratio of EC50 for human oxytocin receptor low affinity site expressed in HEK293 cells coexpressing Rluc8-tagged Galphaq, N-terminal GFP-tagged Ggamma2 and Gbeta1 protein to Ki for human oxytocin receptor low affinity site expressed in COS7 cell membrane; format: cell-based
[9] = system: T4, Oxytocin receptor (Homo sapiens), P30559 [V43A,C47A]; test: (§2) Agonist activity at human oxytocin receptor V43A/C47A double mutant expressed in HEK293 cells coexpressing Rluc8-tagged Galphaq, N-terminal GFP-tagged Ggamma2 and Gbeta1 protein incubated for 2 mins by Gq protein activation based BRET assay; format: cell-based; set-up: unit not given here
T4 sequence (whole entry): T1 sequence (whole entry) with V43A, C47A

Oxytocin receptor [10] = target: Oxytocin receptor (Homo sapiens, UniProt P30559, C47A/V43A); test: as §2; format: cell-based
[11] = target: T1, Oxytocin receptor (Homo sapiens); test: (§3) Agonist activity at human oxytocin receptor expressed in HEK293 cells coexpressing Rluc8-tagged Galphaq, N-terminal GFP-tagged Ggamma2 and Gbeta1 protein incubated for 2 mins in presence of TMH1-TAT peptide by Gq protein activation based BRET assay; format: cell-based; set-up: unit not given here
Oxytocin receptor [12] = target: T2, Oxytocin receptor; test: as §3; format: cell-based
[13] = target: T1, Oxytocin receptor (Homo sapiens); test: Agonist activity at human oxytocin receptor expressed in HEK293 cells coexpressing Rluc8-tagged Galphaq, N-terminal GFP-tagged Ggamma2 and Gbeta1 protein incubated for 2 mins in presence of TMH5-TAT peptide by Gq protein activation based BRET assay; format: cell-based; set-up: unit not given here
Mus musculus [14] = test: Effect on social behavior in OXTR+/- DBA/2J mouse assessed as increase in time spent exploring stranger mouse over time spent exploring empty cage at 0.005 ng/mouse, icv measured for 10 mins by three chamber method; format: functional, organism-based
Mus musculus [15] = species: Mus musculus; test: Potency index, ratio of oxytocin dose to compound dose for OXTR+/- DBA/2J mouse assessed as increase in time spent exploring stranger mouse over time spent exploring empty cage; format: functional
Danio rerio [16] = test: Effect on social behavior in zebra fish assessed as increase in time spent swimming parallel to nacre mutant fish over time spent shoaling close to wild type fish at 0.2 ng/kg, im; format: functional, organism-based
Danio rerio [17] = species: Danio rerio; test: Potency index, ratio of isotocin dose to compound dose for effect on shoaling behavior in zebra fish; format: functional
Oxytocin receptor [18] = target: T2, Oxytocin receptor; test: Agonist activity at human oxytocin receptor high affinity site expressed in HEK293 cells coexpressing Rluc8-tagged Galphaq, N-terminal GFP-tagged Ggamma2 and Gbeta1 protein incubated for 2 mins in presence of TMH5-TAT peptide by Gq protein activation based BRET assay; format: cell-based
Oxytocin receptor [19] = target: T2, Oxytocin receptor; test: Agonist activity at human oxytocin receptor low affinity site expressed in HEK293 cells coexpressing Rluc8-tagged Galphaq, N-terminal GFP-tagged Ggamma2 and Gbeta1 protein incubated for 2 mins in presence of TMH5-TAT peptide by Gq protein activation based BRET assay; format: cell-based

Oxytocin receptor (Homo sapiens, UniProt P30559, C47A), sequence (P30559 whole entry C47A): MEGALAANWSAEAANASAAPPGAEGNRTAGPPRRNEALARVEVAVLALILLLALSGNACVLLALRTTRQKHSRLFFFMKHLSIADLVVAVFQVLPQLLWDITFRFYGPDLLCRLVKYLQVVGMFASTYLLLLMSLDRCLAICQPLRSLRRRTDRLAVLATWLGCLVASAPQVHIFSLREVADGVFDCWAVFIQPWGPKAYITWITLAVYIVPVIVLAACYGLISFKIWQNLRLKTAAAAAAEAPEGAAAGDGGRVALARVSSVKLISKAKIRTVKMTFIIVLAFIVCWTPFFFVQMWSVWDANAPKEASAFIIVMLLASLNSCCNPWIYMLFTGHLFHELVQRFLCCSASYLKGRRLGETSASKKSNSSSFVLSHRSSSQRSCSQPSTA
Oxytocin receptor (Homo sapiens, UniProt P30559, C47A/V43A), sequence (P30559 whole entry V43A/C47A): as the sequence (P30559 whole entry C47A) above, with V43A counted along it

`CC[C@H](C)[C@@H]1NC(=O)[C@H](Cc2ccc(O)cc2)NC(=O)CCSSC[C@@H](C(=O)N2CCC[C@H]2C(=O)N[C@@H](CCCCNC(=O)CCCCCCC(=O)NCCCC[C@H](NC(=O)[C@@H]2CCCN2C(=O)[C@@H]2CSSCCC(=O)N[C@@H](Cc3ccc(O)cc3)C(=O)N[C@@H]([C@@H](C)CC)C(=O)N[C@@H](CCC(N)=O)C(=O)N[C@@H](CC(N)=O)C(=O)N2)C(=O)NCC(N)=O)C(=O)NCC(N)=O)NC(=O)[C@H](CC(N)=O)NC(=O)[C@H](CCC(N)=O)NC1=O` (I: [Mpa]YIQNCPKG-NH2 / II: [Mpa]YIQNCPKG-NH2; disulfide I:1-I:6, II:1-II:6; linker I:8-II:8 via Suberoyl) was tested, and the Emax [1] was -0.11, the EC50 (Oxytocin receptor [2]) was 0.0008 nM and the EC50 (Oxytocin receptor [3]) was 67.3 nM. The KiH [4] was 0.08 pM, the KiL [4] was 1.24 nM and the Emax [5] was -0.14. The EC50 (Oxytocin receptor [6]) was 40.5 nM, the Ratio [7] was 10 and the Ratio [8] was 10. For the same compound, the Emax [9] was -0.1, the EC50 (Oxytocin receptor [10]) was 117 nM and the Emax [11] was -0.16. For the same compound, the EC50 (Oxytocin receptor [12]) was 19.3 nM, the Emax [13] was -0.15 and the Activity (Mus musculus [14]) was “Active”. For the same compound, the Ratio (Mus musculus [15]) was 100, the Activity (Danio rerio [16]) was “Active” and the Ratio (Danio rerio [17]) was 40. For the same compound, the EC50 (Oxytocin receptor [18]) was 0.0118 nM and the EC50 (Oxytocin receptor [19]) was 33.4 nM.
